Values of other authors in US20080247985A1, “Composition base containing solubilized allantoin and urea for topical preparations” (priority 2007, published 2008).

Settings: water at 25 °C

- Solubility in water: 0.45%
Structure (SMILES): NC(=O)NC1NC(=O)NC1=O (stereo not shown) [allantoin, (2,5-dioxo-4-imidazolidinyl) urea]
